Structures can show the parent of a compound that is named as a salt. Where two headings read alike, the source gives them in different places.
Key:
[1] = Lipophilicity logD7.4 by HPLC method; format: physicochemical; settings: HPLC retention on ODP-50 4B column (Shodex Asahipak), phosphate buffer pH 7.4
Method: The lipophilicity of all synthesized compounds was determined as logD7.4, HPLC value by an HPLC method originally described by Donovan and Pescatore.
The logD7.4HPLC value was determined as previously reported by us utilizing an HPLC method originally described by Donovan and Pescatore.

[2] = target: T1, recombinant human COX-2 (Homo sapiens, UniProt P35354); set-up: method as in PMID 26081289; settings: cited from earlier work; for SI: COX-1 vs COX-2 selectivity index, COX inhibition previously reported ref 49
T1 construct: purchased Cayman Chemical 700100
T1 sequence (P35354 18-604): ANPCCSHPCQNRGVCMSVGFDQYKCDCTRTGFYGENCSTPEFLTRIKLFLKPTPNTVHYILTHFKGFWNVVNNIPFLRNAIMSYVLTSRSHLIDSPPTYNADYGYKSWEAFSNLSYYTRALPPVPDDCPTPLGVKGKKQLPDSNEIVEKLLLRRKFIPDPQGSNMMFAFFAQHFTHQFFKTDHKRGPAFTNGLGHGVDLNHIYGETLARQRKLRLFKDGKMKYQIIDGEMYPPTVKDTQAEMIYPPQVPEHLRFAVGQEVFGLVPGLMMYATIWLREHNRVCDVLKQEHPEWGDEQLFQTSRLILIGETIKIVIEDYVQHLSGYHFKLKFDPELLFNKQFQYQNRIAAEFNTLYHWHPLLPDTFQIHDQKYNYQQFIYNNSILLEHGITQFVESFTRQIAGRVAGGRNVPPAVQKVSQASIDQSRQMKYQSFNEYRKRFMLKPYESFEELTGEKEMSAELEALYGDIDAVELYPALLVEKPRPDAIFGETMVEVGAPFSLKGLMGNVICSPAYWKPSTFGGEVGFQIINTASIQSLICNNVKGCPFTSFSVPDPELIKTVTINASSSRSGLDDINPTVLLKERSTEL

[3] = target: T2, purified ovine COX-1 (Ovis aries, UniProt P05979); set-up: method as in PMID 26081289; settings: previously reported ref 49; cited from earlier work
T2 construct: purchased Cayman Chemical 700100
T2 sequence (P05979 25-600): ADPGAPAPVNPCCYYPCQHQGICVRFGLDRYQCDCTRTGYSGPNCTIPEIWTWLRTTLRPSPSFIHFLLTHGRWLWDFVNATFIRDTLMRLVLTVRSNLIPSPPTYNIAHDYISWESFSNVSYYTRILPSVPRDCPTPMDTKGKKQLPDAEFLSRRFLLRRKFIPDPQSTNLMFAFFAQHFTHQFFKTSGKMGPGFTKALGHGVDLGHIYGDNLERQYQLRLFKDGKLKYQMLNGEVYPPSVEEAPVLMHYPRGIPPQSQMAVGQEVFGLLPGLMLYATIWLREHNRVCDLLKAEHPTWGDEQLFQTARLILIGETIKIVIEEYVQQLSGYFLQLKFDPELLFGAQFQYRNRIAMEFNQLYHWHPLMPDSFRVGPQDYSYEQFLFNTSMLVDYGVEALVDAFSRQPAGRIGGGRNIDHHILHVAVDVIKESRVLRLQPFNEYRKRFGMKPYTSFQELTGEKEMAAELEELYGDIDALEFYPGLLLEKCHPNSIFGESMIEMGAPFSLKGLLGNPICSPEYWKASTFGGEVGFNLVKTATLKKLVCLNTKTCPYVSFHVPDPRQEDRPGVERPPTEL

[4] = target: T1, recombinant human COX-2; experiment: COX Fluorescent Inhibitor Screening Assay, COX-2; format: biochemical; settings: for SI: COX-1 vs COX-2 selectivity index; for IC50: human COX-2, 0.1 nM to 100 µM in duplicate
Method: (§1) COX inhibition (Table 1) was evaluated in vitro using purified ovine COX-1 and recombinant human COX-2 enzyme in a commercially available “COX Fluorescent Inhibitor Screening Assay KIT” (item no. 700100, Cayman Chemical, Ann Arbor, MI, USA). Celecoxib served as a reference and inhibition data concerning 4a, 4e, 5a and 5e were previously reported by us and is herein discussed for comparison.
(§2) COX inhibition activity against ovine COX-1 and human COX-2 was determined using the fluorescence-based COX assay “COX Fluorescent Inhibitor Screening Assay Kit” (catalog number 700100; Cayman Chemical, Ann Arbor, MI, USA) according to the manufacturer’s instructions. Compounds 6a–d were screened at a concentration of 100 µM, all others were assayed in a concentration range of 0.1 nM to 100 μM in duplicate.

[5] = target: T2, purified ovine COX-1; experiment: COX Fluorescent Inhibitor Screening Assay, COX-1; format: biochemical; settings: 0.1 nM to 100 µM in duplicate
Method: as §1, §2

[6] = Fluorometric NO release assay (Griess assay); format: physicochemical; settings: 24 h, 37 °C, relative to initial molar amount of compound; for thiol-dependent NO release: 2.5 mM cysteine; for spontaneous NO release: absence of cysteine
Method: The nitric oxide releasing properties of the nitroester-derivatives 5a–d, 5f, and 6a–d were evaluated using a fluorometric Griess assay in the presence and absence of cysteine to determine thiol-dependent and spontaneous release of nitric oxide (Figure 3).
Nitric oxide release of compounds within 24 h at 37 °C was measured using the fluorometric nitric oxide microplate assay kit ab65327 (Abcam, Cambridge, UK). For measurement of spontaneous release, 1.8 nmol of compounds were incubated in 75 µL Dulbecco’s PBS containing 0.05% v/v residual DMSO and 2.5 mM DTPA (pH = 7.1) for 24 h at 37 °C. Thiol-dependent release was measured accordingly in presence of 2.5 mM cysteine. Two series of nitrate standards were prepared (0.2−1 nmol) in 75 µL incubation buffer, in presence or absence of cysteine, respectively. According to the manufacturer’s instructions, all nitrate content in samples and standards was enzymatically converted into nitrite through incubation with nitrate reductase for 2 h at room temperature, and the resulting nitrite content (total nitric oxide) was determined through reaction with 2,3-diaminonaphthalene followed by measurement of fluorescence intensity at λex/em = 360/450 nm using a microplate reader. Nitrite content in samples was calculated from linear regression of standards and expressed as relative nitric oxide release (%) normalized to the initial molar amount of compound. NONOate served as positive control.
Figure 3 Spontaneous and thiol-dependent NO^• release from NO-COXIBs; measured using fluorometric Griess assay (n = 2); relative release indicates the percentage of soluble nitrogen species (nitrate + nitrite) detected in the incubation buffer after 24 h compared to the initial molar amount of compounds; NO^• release of NONOate (positive control) exceeded the maximum detection limit; data presented as mean ± range.

[7] = Conversion in NO-assay buffer followed by UPLC; format: physicochemical; settings: after 70 h, 37 °C, presence of cysteine
Method: The time-dependent degradation behavior of compounds 4f, 5a–f, and 6a–d as well as celecoxib was followed by UPLC analysis over a time course of 8 days (Figure 4). For that, compounds were incubated at 37 °C in the presence or absence of cysteine in the assay buffer used for the Griess assay. Samples were withdrawn at distinct time points (1, 5, 23, 47, 70, and 191 h), diluted into a mixture of acetonitrile/water, and analyzed.
The time-dependent conversion of NO-COXIBs 5a–f and 6a–d as well as reference compounds 4f and celecoxib in the presence or absence of cysteine in assay buffer was investigated by following the degradation of intact compound and identification of selected degradation products by UPLC. For that, samples were incubated at 37 °C in the assay buffer in the presence or absence of cysteine and at the indicated time point; 5 µL assay buffer of each sample was withdrawn and diluted with 45 µL MeCN/water (50/50 v/v). The samples were thoroughly vortexed and then subjected to UPLC analysis. All samples of one time point were analyzed within a total analysis time of approximately 2.5 h. Conversion was monitored at 254 nm using the following UPLC system: column Aquity UPLC® HSS C18 column (Waters Corporation, Milford, MA, USA; 100 × 2.1 mm, 1.8 µm, 130 Å), UPLC H-Class (Waters Corporation, Milford, MA, USA): quaternary gradient pump QSM, autosampler FTN, column heater CHA, and diode array detector PDAeλ, γ detector Gabi Star (Raytest Isotopenmeßgeräte GmbH, Straubenhardt, Germany), flow rate 0.4 mL/min, eluent: (A): 0.1% acetic acid in MeCN/MeOH 1/1/(B): 0.1% acetic acid in H2O; gradient: t0min 45/55–t0.5min 45/55–t5.5min 95/5–t7.0min 95/5–t7.2min 45/55–t8.5min 45/55). For the identification of degradation products, samples taken after 24 h were additionally subjected to HPLC-HRMS analysis using HPLC system 6. In brief, the NO-COXIBs were converted to the respective hydroxymethyl-substituted compounds and in the presence of cysteine additionally to the cysteine adduct, which could be identified by the respective Δm/z shifts. A detailed comparison of calculated and found m/z-signals is given in Supplementary Material Table S1, and copies of HPLC-HRMS chromatograms and selected spectra are given in Supplementary Material Figures S56–S66.

| Structure (SMILES) | chromatographic logD [1] | SI [4] | IC50 [4] [µM] | IC50 [5] [µM] | melting point [°C] | other results |
| --- | --- | --- | --- | --- | --- | --- |
| Cc1ccc(-c2c(Cl)c(CCl)nn2-c2ccc(S(N)(=O)=O)cc2)cc1 [4a, 4-[4-Chloro-3-(chloromethyl)-5-(4-toly)-1H-pyrazol-1-yl]benzenesulfonamide] | 3.61 | – | – | – | – | SI [2]: >454; IC50 [3]: > 100 µM |
| COc1ccc(-c2c(Cl)c(CCl)nn2-c2ccc(S(C)(=O)=O)cc2)cc1 [4d, 4-Chloro-3-(chloromethyl)-5-(4-methoxyphenyl)-1-[4-(methylsulfonyl)phenyl]-1H-pyrazole] | 3.84 | >208 | 0.48 | > 100 | 234 to 236 | – |
| COc1ccc(-c2c(Cl)c(CO[N+](=O)[O-])nn2-c2ccc(S(C)(=O)=O)cc2)cc1 (as salt: nitrate) [5d, {4-Chloro-5-(4-methoxyphenyl)-1-[4-(methylsulfonyl)phenyl]-1H-pyrazol-3-yl}methyl nitrate] | – | – | – | – | 141 to 143 | – |
| Cc1ccc(-c2cc(CO[N+](=O)[O-])nn2-c2ccc(S(N)(=O)=O)cc2)cc1 [5e, [1-(4-Sulfamoylphenyl)-5-(p-tolyl)-1H-pyrazol-3-yl]methyl nitrate] | 3.4 | – | – | – | – | SI [2]: >112; IC50 [3]: > 100 µM |
| Cc1ccc(-c2cc(CCl)nn2-c2ccc(S(N)(=O)=O)cc2)cc1 [4e, 4-[3-(Chloromethyl)-5-(p-tolyl)-1H-pyrazol-1-yl]benzenesulfonamide] | 3.14 | – | – | – | – | SI [2]: >78; IC50 ([2]; human COX-2, previously reported ref 49): 1.27 µM; IC50 [3]: > 100 µM |
| COc1ccc(-c2c(Cl)c(CO[N+](=O)[O-])nn2-c2ccc(S(N)(=O)=O)cc2)cc1 (as salt: nitrate) [5b, [4-Chloro-5-(4-methoxyphenyl)-1-(4-sulfamoylphenyl)-1H-pyrazol-3-yl]methyl nitrate] | – | – | – | – | 173 to 174 | – |
| Cc1ccc(-c2c(Cl)c(CO[N+](=O)[O-])nn2-c2ccc(S(C)(=O)=O)cc2)cc1 (as salt: nitrate) [5c, {4-Chloro-1-[4-(methylsulfonyl)phenyl]-5-(p-tolyl)-1H-pyrazol-3-yl}methyl nitrate] | – | – | – | – | 113 to 115 | – |
| CCC(=O)NS(=O)(=O)c1ccc(-n2nc(CO[N+](=O)[O-])cc2-c2ccc(C)cc2)cc1 (as salt: nitrate) [6c, {1-[4-(N-Propionylsulfamoyl)phenyl]-5-(p-tolyl)-1H-pyrazol-3-yl}methyl nitrate] | – | – | – | – | 72 to 74 | – |
| Cc1ccc(-c2c(Cl)c(CCl)nn2-c2ccc(S(C)(=O)=O)cc2)cc1 [4c, 4-Chloro-3-(chloromethyl)-1-[4-(methylsulfonyl)phenyl]-5-(p-tolyl)-1H-pyrazole] | 3.9 | >138 | 0.72 | > 100 | – | – |
| COc1ccc(-c2c(Cl)c(CCl)nn2-c2ccc(S(N)(=O)=O)cc2)cc1 [4b, 4-[4-Chloro-3-(chloromethyl)-5-(4-methoxyphenyl)-1H-pyrazol-1-yl]benzenesulfonamide] | 3.53 | 2.3 | 0.127 | 0.297 | 238 to 240 | – |
| COc1ccc(-c2c(Cl)c(CO[N+](=O)[O-])nn2-c2ccc(S(N)(=O)=O)cc2)cc1 [5b, [4-Chloro-5-(4-methoxyphenyl)-1-(4-sulfamoylphenyl)-1H-pyrazol-3-yl]methyl nitrate] | 3.67 | 5.9 | 0.434 | 2.57 | – | thiol-dependent NO release [6]: 20%; spontaneous NO release [6]: no detectable; IC50 (COX-1) [5]: considerable COX-1 inhibition potency |
| COc1ccc(-c2cc(CCl)nn2-c2ccc(S(N)(=O)=O)cc2)cc1 [4f, 4-[3-(Chloromethyl)-5-(4-methoxyphenyl)-1H-pyrazol-1-yl]benzenesulfonamide] | 3.06 | >270 | 0.37 | > 100 | 169 to 172 | intact compound [7]: quantitatively consumed; thiol-dependent NO release [6]: not detectable; spontaneous NO release [6]: not detectable |

Source: publication PMC9573605, “Exploring Nitric Oxide (NO)-Releasing Celecoxib Derivatives as Modulators of Radioresponse in Pheochromocytoma Cells” (Molecules, 2022)
